From patent US4994473A, “Pyridyl containing insecticides” (ICI Americas Inc., priority 1988, dated 1991)

How the values were obtained:
Aphis fabae = assay: Black bean aphid spray test on nasturtium plants, mortality after 48 hours; type: in vivo, Black Bean Aphid Aphis fabae (Scop.); settings: mixed ages, percent of test compound in sprayed solution
Description: (§1) The compounds in Table I above were tested for insecticidal activity using the following testing procedures. LC50 values, based on the results of these tests and calculated according to dosage-mortality curves, are expressed in Table II.
Black Bean Aphid Aphis fabae (Scop.)
Nasturtium plants (Tropaeolum sp.) approximately 5 cm tall, were transplanted into sandy loam soil in small cups and infested with 25-50 black bean aphids of mixed ages. Twenty-four hours later they were sprayed to the point of runoff with 50--50 acetone-water solutions of the test compound. Treated plants were held in the greenhouse and mortality was recorded after 48 hours. Test concentrations ranged from 0.05% downward. The LC-50 value is expressed below in Table II under the heading "BA" in terms of percent of the test compound in the sprayed solution.

Tetranychus urticae = assay: Two-spotted mite acaricidal test on pinto bean plants; type: in vivo, two-spotted mite Tetranychus urticae (Koch); settings: percent concentration in solution, 5-7 days; for LC50 2-SM A: adults; for LC50 2-SM E: eggs
Source text: Acaricidal Evaluation Test
The two-spotted mite (2SM) [Tetranychus urticae (Koch)]was employed in tests for miticides. The test procedure was as follows:
Pinto bean plants (Phaseolus sp.) approximately 10 cm tall, were transplanted into sandy loam soil in small cups and thoroughly infested with two-spotted mites of mixed ages and sexes. Twenty-four hours later the infested plants were inverted and dipped for 2-3 seconds in 50--50 acetone-water solutions of the test compound. Treated plants were held in the greenhouse, and 5-7 days later mortality was determined for both adult mites and the nymphs hatching from eggs which were on the plants at the time of treatment. Test concentrations ranged from 0.05% downward. The LC-50 value is expressed below in Table II under the headings "2SM-A" (i.e., adults) and "2SM-E" (i.e. eggs) in terms of percent concentration of the test compound in the solution.

Trichoplusia ni = assay: Cabbage looper larvae leaf-dip test; type: in vivo, Cabbage Looper Trichoplusia ni (Hubner); settings: second instar larvae, percent of test compound in solution, 3-5 days
Description: as §1
Cabbage Looper Trichoplusia ni (Hubner)
The test compound was diluted in a 50--50 acetone-water solution Cotyledons of hyzini squash (Calabacita abobrinha), approximately 1×1.5 inches, were immersed in the test solutions for 2-3 seconds and placed on a wire screen to dry. The dried leaves were p1aced in petri dishes containing a moistened piece of filter paper and infested with 5 secondinstar cabbage looper larvae. The dishes were placed in a high humidity chamber. Mortality of the larvae was recorded 3-5 days later. Test concentrations ranged from 0.1% downward. The LC-50 value is expressed below in Table II under the heading "CL" in terms of percent of the test compound in solution.

[1] = test system: Diabrotica undecimpunctata undecimpunctata; assay: Western spotted cucumber beetle larvae soil test; type: in vivo; settings: Diabrotica eggs/larvae; ppm of the test compound in the soil
Description: as §1
Western Spotted Cucumber Beetle Larvae Diabrotica undecimpunctata undecimpunctata (Mannherheim)
Ten grams of moist potting soil was placed in a plastic cup. The test compound was dissolved in acetone. A 0.05 ml aliquot of the test sample, diluted to the desired concentration, was added to the soil. The cup was capped and the soil was mixed on a vortex mixer for approximately 15 seconds. An indentation was made on the surface of the soil and approximately 50 Diabrotica eggs were added. The eggs were covered with soil and maintained at room temperature (approximately 70° F. or 21° C.). Four days later a section of Romaine lettuce (Latuca sativa) leaf was placed in the treated cups. One week later the cups were examined for live larvae. Test concentrations ranged from 25 ppm downward. The LC-50 value is expressed below in Table II under the heading "Diabrotica" in terms of ppm of the test compound in the soil.

Musca domestica = assay: Housefly contact test, mortality after 48 hours; type: in vivo, Housefly Musca domestica; settings: μg of the test compound per 25 female flies
Description: as §1
The test compound was diluted in acetone and aliquots pipetted onto the bottom of aluminum dishes. To ensure even spreading of the chemical on the bottom of the dishes, 1 ml of acetone containing 0.01% peanut oil was also added to each dish. After all solvents had evaporated, the dishes were placed in circular cardboard cages containing 25 female houseflies, 1-2 days old. The cages were covered on the bottom with cellophane and on the top with tulle netting, and each contained a sugar-water saturated cotton plug for maintenance of the flies. Mortality was recorded after 48 hours. Test levels ranged from 100 μg/25 female houseflies downward. The LC-50 value is expressed below in Table II under the heading "HF", in terms of μg of the test compound per 25 female flies.

Heliothis virescens = assay: Tobacco budworm egg dip test; type: in vivo, Tobacco Budworm Heliothis virescens (Fabricius); settings: 2-day old eggs (TBW-E), percent of test compound in solution
Description: as §1
Tobacco Budworm Heliothis virescens (Fabricius)
Eggs: Paper towel patches of 2-day old eggs of the tobacco budworm were dipped in acetone solutions of the test compound and placed in petri dishes containing a portion of larval rearing medium. Treated eggs were maintained at 78° F. and mortality was recorded after all control eggs had hatched and the young larvae were feeding on the media. Test concentrations ranged from 0.1% downward. The LC-50 value is expressed below in Table II under the heading "TBW-E" in terms of percent of the test compound in the solution.

| Structure (SMILES) | LC50 BA (Aphis fabae) [%] | LC50 2-SM A (Tetranychus urticae) [%] | LC50 2-SM E (Tetranychus urticae) [%] | LC50 CL (Trichoplusia ni) [%] | LC50 Diabrotica [1] [ppm] | LC50 HF (Musca domestica) [µg] | LC50 TBW (Heliothis virescens) [%] |
| --- | --- | --- | --- | --- | --- | --- | --- |
| CC(C)C(=Nc1ccc(OCC(F)(F)F)nc1)OCc1cccc(Oc2ccc(Cl)cc2)n1 [Compound 46] | 0.0003 | 0.006 | 0.006 | 0.00027 | > 25 | < 100 | 0.017 |
| C=C(C)C(=Nc1ccc(Cl)nc1)OCc1cccc(Oc2ccccc2)c1 [Compound 47] | 0.05 | > 0.05 | > 0.05 | < 0.1 | > 25 | < 100 | < 0.1 |
| C=C(C)C(=Nc1ccc(Cl)nc1)OCc1ccc(F)c(Oc2ccc(Cl)cc2)c1 [Compound 48] | < 0.05 | > 0.05 | > 0.05 | < 0.1 | > 25 | < 100 | < 0.1 |
| C=C(C)C(=Nc1ccc(Cl)nc1)OCc1ccc(F)c(Oc2ccccc2)c1 [Compound 49] | < 0.05 | > 0.05 | > 0.05 | < 0.1 | > 25 | < 100 | 0.1 |
